Results from US11491091B2, “Cooling product” (SYMRISE AG, priority 2010, dated 2022).

Tested on: skin of test persons
Assay: Cooling effect on the skin as perceived by test persons (panel test)
Format: in vivo
Conditions: in each formulation the proportion of 1,2-pentanediol replaced with 1,2-hexanediol at a ratio of 5:3
Excerpt: In case of doubt, the perceptibility of the cooling effect is to be determined by means of a panel test wherein the corresponding mixture is applied onto the skin of at least 10 test persons. If in the course of this, preferably in combination with a blind test, 90% of the test persons confirm a cooling effect, then this will preferably correspond to the criteria for the presence of a corresponding effect. Topical applications in terms of the present text are applications where the corresponding active substance or the combination of active substances is brought into contact with the skin or with a mucous membrane. It is especially preferred that the evaluation of a cooling effect and its enhancement is made analog to the application example presented below. […] Provided the corresponding formulations also contained trans-4-tert. butylcyclohexanol, the cooling effect was even further enhanced compared to formulations without this compound.

SMILES: CCCCC(O)CO (stereo not shown) [1,2-hexanediol]
- cooling effect enhancement after replacement of 1,2-pentanediol: comparable effects are achieved
